Patent US20030216569A1, “Method of making HIV protease inhibitors” (priority 1993, published 2003)
≈ marks a conversion by molar mass, not a printed value. Where “and” joins values, the source holds several entries; their conditions need not be identical. Equal values may be shown once. Read-outs that look alike come from different tables or passages of the source.

Legend:
[1] = test system: HIV-1 isolates IIIB and/or RF in MT-2 cells; assay: SRI primary anti-HIV screen, MTT assay of inhibition of HIV-induced cell killing in MT2 cells; type: cell-based; conditions: for IC50: Human immunodeficiency virus 1, IIIB, MT2, read-out: SRI MT2 IC50 ng/ml, MT2 cells; for SRI MT2 IC50: MT2 cells
From the text: I. Primary Drug Screening of Anti-HIV Compounds at Southern Research Institute (SRI) (Results recorded in Table 1 are designated “SRI CEM (ng/ml)” or “SRI MT2 (ng/ml)”)
A. Principle of MTT Assay:
SRI has an established program for the primary antiviral analysis of compounds in microtiter assays which measures the ability of a selected compound to inhibit HIV-induced cell killing. This assay involves the conversion of the tetrazolium dye MTT to a colored formazan product by mitochondrial enzymes in metabolically active cells. This assay system is used at SRI to screen over 30,000 compounds per year. Briefly, the assay involves the infection of CEM or MT2 cells in round bottom 96-well plates. The compound of interest is added just prior to infection. Following 6 days of incubation at 37° C. the plates are stained with MTT. The results of the assay are quantitated spectrophotometrically on a Molecular Devices Vmax plate reader. The data are analyzed by linear regression utilizing an in-house software program to calculate antiviral activity (IC25, IC50, IC95) and toxicity (TC25, TC50, TC95) as well as other values.
Primary antiviral assays are routinely performed in CEM or MT-2 cells.
B. Standard Screening Assays in CEM and MT-2 Cells
1. Compound dilution and delivery to the plates
Drugs are solubilized in the appropriate vehicle such as distilled water or DMSO if necessary. Latex gloves, lab coats and masks are used during all phases of the handling process to prevent exposure to potentially harmful agents. The drug is prepared at the appropriate concentration and stored at −20° C. until used by the screening laboratory. The first dilution of each compound is made in a dilution tube with medium to yield a concentration two-fold that of the highest test concentration. Sterile titer tubes are then used to make serial one half-log dilutions of each compound. Following drug dilution, the diluted compound is added to the appropriate well of a 96-well microtiter plate. […] When testing includes only six dilutions, two drugs can be assayed on a single microtiter plate. The drugs are added to the plate in a final volume of 100 microliters.
During the time the drug dilutions are prepared, cells are washed and counted. Viability is monitored by trypan blue dye exclusion and assays are not performed if the viability falls below 90%. Cells are maintained in an exponential growth phase and are split 1:2 on the day prior to assay to assure exponential growth rate.
For the primary screen, the cell lines utilized are CEM and MT-2. Unless otherwise indicated, the medium used is RPMI 1640 with 10% heat-inactivated fetal calf serum (FBS), glutamine and antibiotics.
Cells are propagated at 37° C. in an atmosphere of 5% CO2 in air. The virus employed for this work is HIV-1 isolates IIIB and/or RF, which are prepared by an acute infection process.
Briefly, virus-infected cells are pelleted on a daily basis beginning at three days post-infection until the virus has killed all of the cells in the culture. Reverse transcriptase activity and p24 ELISA are used to identify pools with the greatest amout of virus.
These 24-hour harvests are pooled, filtered and frozen at −90° C. Prior to use in the assay, the infectious pool of virus is titered on all available cell lines in order to determine the amount of virus required in the antiviral assay.
In general, pools produced by the acute infection method require the addition of one microliter of infectious virus per well resulting in the screening of drugs at a multiplicity of infection of 0.01. In this manner, enough virus is prepared and frozen to complete over one thousand microtiter plates, allowing the testing of up to two thousand compounds from a single stock of infectious virus. The use of a single stock of virus for a long period of testing has very favorable effects on the repeatability of the assay systems. […]

[2] = test system: Viral SN123 infected CEM cells
Procedure: Purpose: To determine IC50 CC50 for compounds:
Media A [1% DMSO] (100 microliters DMSO+9.9 ml media A)
CEM cells @ [1×10^4] cells/ml (4 plate=40 ml) (6 plate=60 ml)
(need 70 microliters of each)
A-D at [10 mM] in 100% DMSO
4 or 6 u-bottom 96-well plates
4 flat bottom 96-well plates for dilutions
8-10 boxes of sterile costar tips
Approximately 10 reagent trays
1000 cells/well=1×10^4 cells/ml=1000 cells/100 microliters 200 microliters=total volume in a well
Cell Preparation and Plating of Cells, Media A and Media A (1% DMSO)
a. Number a 96-well tissue culture plate for each compound tested, one for a control plate, and one for the control compound.
b. Count cells on hemacytometer and resuspend them in 40 ml or 80 ml of Media A at a concentration of [1×10^4]0 cells/ml.
Counting Cells on a Hemacytomer:
Label two 1.8 ml nuc tubes 1 and 2.
Put 0.5 ml of well mixed CEM cells (in growth phase) in tube 1.
Put 50 micoliters PBS and 40 microliters of trypan blue into tube 2.
Mix up the cells in tube 1 then remove 10 microliters of cells and put them into tube 2.
Mix well in tube 2, then remove 10 microliters of the stained cells and put them on the hemacytometer.
Count the number of cells in the center square of the hemacytometer with the microscope set on 10×.
The concentration of the stock CEM's in cells/ml is as follows:
Cells counted×1×10^5=Concentration of CEM's in [cells/ml].
c. Add 200 microliters Media A to: A1 of places 2-6. These are Blanks. A4-H4 of plate 1. These are Blanks.
d. Add 5 microlicers Media A to all wells of Rows A-D of plates 2-6 except A1 (the top half of each plate).
e. Add 50 microliters of Media A to wells A1-D3 of Plate 1 (the top half of the plate).
f. Add 50 microliters Media A[l% DMSO] to all wells of Columns 1-3 of plate 1.
This puts 1000 cells/well.
h. Put plates in an incubator while doing drug dilutions.
Preparation Control and Test Drugs
(1) Put 60 microliters of DMSO into all wells of Columns 2-12, Rows A-E.
(3) Put 70 microliters of A [10 mM] at 100% DMSO into well B1.
(4) Put 70 microliters of B [10 mM] at 100% DMSO into well C1.
(5) Put 70 microliters of C [10 mM] at 100% DMSO into well D1.
(6) Put 70 microliters of D [10 mM] at 100% DMSO into well E1.
Change tips before each dilution.
(1) In rows A-E of another plate make a row for the first 1:10 dilution to correspond to each compound's 100% DMSO row.
A into Row B for the first 1:10 dilution.
B into Row C for the first 1:10 dilution.
C into Row D for the first 1:10 dilution.
D into Row E for the first 1:10 dilution.
(2) Put 180 microliters of media A into all wells of rows A-E corresponding to the 100% DMSO rows. 2.5 ml needed per row.
(3) Remove 20 microliters from all wells of each row of the 100% DMSO rows and transfer it to the corresponding 1:10 row.
(1) Make a plate for every 3 compounds to be tested.
Use 20 ml of media A per plate.
(3) Transfer 25 microliters of each compound from the row in the 1:10 dilution to the corresponding two rows on the 1:100 dilution plate changing tips before each transfer.
Addition of Viral SN123 to Plates
a. Thaw Sn123 in 37° C. water bath for approximately 10 minutes.
b. Dilute Sn123 1:16 by adding 1 ml of Sn123 to 15 ml of media A.
c. Add 50 microliters of Sn123 [1:16] to wells E1-H12 of plates 2-6 and to wells E1-H3 of plate 1.
Addition of Drugs to Plates
a. Add 50 microliters of the control and test drugs from the rows in the 1:100 dilution plates to the appropriate rows in the final plates (changing tips before each transfer). One row in the 1:100 plate will do 4 rows in the final plate. Leave A1 blank.
b. Incubate all plates 7 days at 37° C. 5% CO2.
c. Do Xtt protocol on day 7 as follows:
d. Preparation of Xtt/PMS Solution: (4 plate=20 ml) (6 plate=30 ml)
100 microliters [100 mM] PMS+4.9 ml PBS=PMS at [2 mM]
(2) Heat 500 ml of H2O in microwave for 5 minutes on high.
(3) Put 20 or 30 ml of phenol red RPMI in a 50 ml centrifuge tube.
(4) Put the RPMI in the beaker of hot water.
(5) Add 20 or 30 mg of XTT to the warmed up RPMI.

[3] = Human immunodeficiency virus 1, CCRF-CEM, read-out: Whole cell IC50 nM, CEM cells, values in parentheses are 35B in same assay
[4] = Human immunodeficiency virus 1, CCRF-CEM, read-out: Whole cell IC90 nM, CEM cells, values in parentheses are 35B in same assay
[5] = read-out: Whole cell IC50 nM, CEM cells, values in parentheses are 35B in same assay
[6] = read-out: Whole cell IC90 nM, CEM cells, values in parentheses are 35B in same assay

| Molecule | IC50 [1] [ng/mL] | SRI MT2 IC50 [1] | IC50 [2, 3] [nM] | IC90 [2, 4] [nM] | further results |
| --- | --- | --- | --- | --- | --- |
| CC(C)(C)NC(=O)C1CC2CCCCC2CN1CC(O)C(Cc1ccccc1)NC(=O)c1cccc(O)c1F (stereo not drawn) [Example 1, [3S-(3R*,4aR*,8aR*,2′S*,3′R*)]-2-[2′-Hydroxy-3′-phenylmethyl-4′-aza-5′-oxo-5′-(2″-fluoro-3″-hydroxyphenyl)pentyl]decahydroisoquinoline-3-N-t-butylcarboxamide] | 1310 (≈ 2.43 µM) | 1.5 µg/mL | – | – | – |
| CC(C)(C)NC(=O)C1CC2CCCCC2CN1CC(O)C(Cc1ccccc1)NC(=O)c1cccnc1Cl (stereo not drawn) [Example 2, [3S-(3R*,4aR*,8aR*,2′S*,3′R*)]-2-[2′-Hydroxy-3′-phenylmethyl-4′-aza-5′-oxo-5′-(2″-chloro-pyrid-3″-yl)pentyl] decahydroisoquinoline-3-N-t-butylcarboxamide] | 1580 (≈ 2.92 µM) | 1.63 µg/mL | – | – | – |
| CCc1c(O)cccc1C(=O)NC(Cc1ccccc1)C(O)CN1CC2CCCCC2CC1C(=O)NC(C)(C)C (stereo not drawn) [Example 3, [3S-(3R*,4aR*,8aR*,2′S*,3′R*)]-2-[2′-Hydroxy-3′-phenylmethyl-4′-aza-5′-oxo-5′-(2″-ethyl-3″-hydroxyphenyl)pentyl] decahydroisoguinoline-3-N-t-butylcarboxamide] | 21.3 (≈ 0.0387 µM) | 0.0215 µg/mL | 96.1 | 286 | – |
| CC(C)(C)NC(=O)C1CC2CCCCC2CN1CC(O)C(Cc1ccccc1)NC(=O)c1ccc[n+]([O-])c1 (stereo not drawn) [Example 5, [3S-(3R*,4aR*,8aR*,2′S*,3′R*)]-2-[2′-Hydroxy-3′-phenylmethyl-4′-aza-5′-oxo-5′-(pyrid-3″yl-N-oxidyl)pentyl] decahydroisoquinoline-3-N-t-butylcarboxamide] | 7800 (≈ 14.9 µM) | 5.03 µg/mL | – | – | – |
| CC(C)(C)NC(=O)C1CC2CCCCC2CN1CC(O)C(Cc1ccccc1)NC(=O)c1cccc(O)c1Cl (stereo not drawn) [Example 11, [3S-(3R*,4aR*,8aR*,2′S*,3′R*)]-2-[2′-Hydroxy-3′-phenylmethyl-4′-aza-5′-oxo-5′-(2″-chloro-3″-hydroxyphenyl)pentyl] decahydroisoquinoline-3-N-t-butylcarboxamide] | 649 (≈ 1.17 µM) | 0.387 µg/mL | 114 | – | – |
| Cc1c(O)cccc1C(=O)NC(Cc1ccccc1)C(O)CN1CC2CCCCC2CC1C(=O)NC(C)(C)C (stereo not drawn) [Example 12, [3S-(3R*,4aR*,8aR*,2′S*,3′R*)]-2-[2′-Hydroxy-3′-phenylmethyl-4′-aza-5′-oxo-5′-(2″-methyl-3″-hydroxyphenyl)pentyl] decahydroisoquinoline-3-N-t-butylcarboxamide] | – | 0.0243 µg/mL | 15 | 47.8 | IC50 ([2]; Human immunodeficiency virus 1, CCRF-CEM, read-out: Whole cell IC50 nM, CEM cells, tested as the mesylate salt): 35.7 nM; IC90 ([2]; Human immunodeficiency virus 1, CCRF-CEM, read-out: Whole cell IC90 nM, CEM cells, tested as the mesylate salt): 91.8 nM; IC50 [2, 5]: 22.3 nM; IC90 [2, 6]: 73.2 nM |
| CC(C)(C)NC(=O)C1CC2CCCCC2CN1CC(O)C(Cc1ccccc1)NC(=O)c1ccccc1C(F)(F)F (stereo not drawn) [Example 15, [3S-(3R*,4aR*,8aR*,2′S*,3′R*)]-2-[2′-Hydroxy-3′-phenylmethyl-4′-aza-5′-oxo-5′-(2″-trifluoromethylphenyl)pentyl] decahydroisoquinoline-3-N-t-butylcarboxamide] | 1680 (≈ 2.93 µM) | 1.47 µg/mL | – | – | – |
| CC(C)(C)NC(=O)C1CC2CCCCC2CN1CC(O)C(Cc1ccccc1)NC(=O)c1c(Cl)ccc(O)c1Cl (stereo not drawn) [Example 17, [3S-(3R*,4aR*,8aR*,2′S*,3′R*)]-2-[2′-Hydroxy-3′-phenylmethyl-4′-aza-5′-oxo-5′-(2″,6″-dichloro-3″-hydroxyphenyl)pentyl] decahydroisoquinoline-3-N-t-butylcarboxamide] | – | 8.99 µg/mL and 5.39 µg/mL | – | – | – |
| Cc1c(N)cccc1C(=O)NC(Cc1ccccc1)C(O)CN1CC2CCCCC2CC1C(=O)NC(C)(C)C (stereo not drawn) [Example 18, [3S-(3R*,4aR*,8aR*,2′S*,3′R*)]-2-[2′-Hydroxy-3′-phenylmethyl-4′-aza-5′-oxo-5′-(2″-methyl-3″-aminophenyl)pentyl] decahydroisoquinoline-3-N-t-butylcarboxamide] | 254 (≈ 0.475 µM) | 0.232 µg/mL | 739 | – | – |
| CC(C)c1c(O)cccc1C(=O)NC(Cc1ccccc1)C(O)CN1CC2CCCCC2CC1C(=O)NC(C)(C)C (stereo not drawn) [Example 20, [3S-(3R*,4aR*,8aR*,2′S*,3′R*)]-2-[2′-Hydroxy-3′-phenylmethyl-4′-aza-5′-oxo-5′-(2″-iospropyl-3″-hydroxyphenyl)pentyl] decahydroisoquinoline-3-N-t-butylcarboxamide] | 144 (≈ 0.255 µM) | – | 186 | 671 | – |
| CCCCc1c(O)cccc1C(=O)NC(Cc1ccccc1)C(O)CN1CC2CCCCC2CC1C(=O)NC(C)(C)C (stereo not drawn) [Example 21, [3S-(3R*,4aR*,8aR*,2′S*,3′R*)]-2-[2′-Hydroxy-3′-phenylmethyl-4′-aza-5′-oxo-5′-(2″-butyl-3′″-hydroxyphenyl)pentyl] decahydroisoquinoline-3-N-t-butylcarboxamide] | 427 (≈ 0.739 µM) | – | 414 | 886 | – |
| CCCc1c(O)cccc1C(=O)NC(Cc1ccccc1)C(O)CN1CC2CCCCC2CC1C(=O)NC(C)(C)C (stereo not drawn) [Example 22, [3S-(3R*,4aR*,8aR*,2′S*,3′R*)]-2-[2′-Hydroxy-3′-phenylmethyl-4′-aza-5′-oxo-5′-(2″-propyl-3″-hydroxyphenyl)pentyl] decahydroisoquinoline-3-N-t-butylcarboxamide] | 53 (≈ 0.094 µM) | – | 400 | 798 | – |
| Cc1c(O)cccc1C(=O)NC(Cc1ccccc1)C(O)CN1CC2CCCCC2CC1C(=O)NC(C)(C)C (stereo not drawn) [Example 23, [3S-(3R*,4aR*,8aR*,2′S*,3′R*)]-2-[2′-Hydroxy-3′-phenylmethyl-4′-aza-5′-oxo-5′-(2″-methyl-3″-hydroxyphenyl)pentyl] decahydroisoquinoline-3-N-t-butylcarboxamide] | – | 0.00627 µg/mL | – | – | IC50 [2, 5]: 2.39 nM; IC90 [2, 6]: 19 nM |
| Cc1c(O)cccc1C(=O)NC(CSc1ccc2ccccc2c1)C(O)CN1CC2CCCCC2CC1C(=O)NC(C)(C)C (stereo not drawn) [Example 24, [3S-(3R*,4aR*,8aR*,2′S*,3′R*)]-2-[2′-Hydroxy-3′-(naphth-2-ylthiomethyl)-4′-aza-5′-oxo-5′-(2″-methyl-3″-hydroxyphenyl)pentyl] decahydroisoquinoline-3-N-t-butylcarboxamide] | 41.4 (≈ 0.067 µM) | 0.0464 µg/mL | 25 | – | – |
| Cc1c(O)cccc1C(=O)N[C@@H](CSc1ccc2ccccc2c1)[C@H](O)CN1CCCC[C@H]1C(=O)NC(C)(C)C [Example 25, [2S-(2R*,2′S*,3′S*)]-1-[2′-Hydroxy-3′-(naphth-2-ylthiomethyl-4′-aza-5′-oxo-5′-(2″-methyl-3″-hydroxyphenyl)pentyl]piperidine-2-N-t-butylcarboxamide] | 169 (≈ 0.3 µM) | – | – | – | – |
| [3S-(3R*,4aR*,8aR*,2′S*,3′S*)]-2-[2′-Hydroxy-3′-phenylmethyl-4′-aza-5′-oxo-5′-[2″-methyl-3″-N-(methylsulfonyl)amino-phenyl)]pentyl] decahydroisoguinoline-3-N-t-butylcarboxamide [Example 36] | – | 1.87 µg/mL and 2.3 µg/mL | – | – | – |
